Activity calls are given as the source filed them. The rule behind the calls is not given here.
Experiments:
Mus musculus [1] = experiment: Down regulation of HMGCS mRNA expression in HFD-induced obese C57BL/6J mouse liver at 20 to 40 mg/kg, ip administered twice daily for 2.5 days measured at 2 hrs post last dose by RT-PCR analysis; format: functional, organism-based
Mus musculus [2] = experiment: Effect on respiratory exchange ratios in HFD-induced obese C57BL/6J mouse at 40 mg/kg, ip administered twice daily for 2.5 days incubated for 12.6 hrs under dark condition followed by redosing on day 3 for 2 times; format: functional, organism-based
Mus musculus [3] = experiment: Improvement in insulin resistance in high fat diet-induced obese C57BL/6J mouse assessed as increase in GLUT2 expression in skeletal muscle at 40 mg/kg, ip administered twice daily for 2.5 days measured at 2 hrs post last dose by Western blot analysis; format: functional, organism-based
Mus musculus [4] = experiment: Down regulation of ABCG8 mRNA expression in HFD-induced obese C57BL/6J mouse liver at 20 to 40 mg/kg, ip administered twice daily for 2.5 days measured at 2 hrs post last dose by RT-PCR analysis; format: functional, organism-based
Mus musculus [5] = experiment: Increase in carbon dioxide production in HFD-induced obese C57BL/6J mouse at 40 mg/kg, ip administered twice daily for 2.5 days incubated for 12.6 hrs under dark condition followed by redosing on day 3 for 2 times; format: functional, organism-based
Mus musculus [6] = experiment: Antihyperlipidemic activity in high fat diet-induced obese C57BL/6J mouse assessed as serum total cholesterol levels at 40 mg/kg, ip administered twice daily for 2.5 days measured at 2 hrs post last dose (reference value: 4.56 +/- 1.01 mmol/L); format: functional
Mus musculus [7] = experiment: Antiobesity activity in HFFD-induced obese C57BL/6J mouse assessed as reduction in body weight at 40 mg/kg, ip administered twice daily for 2.5 days followed by once daily dosing up to 16 days relative to control; format: functional; design: scale not given: the % may be the effect or the level left
Mus musculus [8] = experiment: Improvement in insulin resistance in high fat diet-induced obese C57BL/6J mouse assessed as increase in phosphorylated GSK3beta level in liver at 40 mg/kg, ip administered twice daily for 2.5 days measured at 2 hrs post last dose by Western blot analysis; format: functional, organism-based
Mus musculus [9] = experiment: Antihyperglycemic activity in high fat diet-induced obese C57BL/6J mouse assessed as reduction in blood glucose level at 20 to 40 mg/kg, ip administered twice daily for 2.5 days measured after 2 hrs post last dose; format: functional, organism-based
Mus musculus [10] = experiment: Antihyperlipidemic activity in high fat diet-induced obese C57BL/6J mouse assessed as reduction in liver triglyceride levels at 20 to 40 mg/kg, ip administered twice daily for 2.5 days measured at 2 hrs post last dose; format: functional, organism-based
Mus musculus [11] = experiment: Down regulation of SREBP1 mRNA expression in HFD-induced obese C57BL/6J mouse liver at 20 to 40 mg/kg, ip administered twice daily for 2.5 days measured at 2 hrs post last dose by RT-PCR analysis; format: functional, organism-based
Mus musculus [12] = experiment: Down regulation of HMGCR mRNA expression in HFD-induced obese C57BL/6J mouse adipose tissue at 20 to 40 mg/kg, ip administered twice daily for 2.5 days measured at 2 hrs post last dose by RT-PCR analysis; format: functional, organism-based
Mus musculus [13] = experiment: Toxicity in HFFD-induced obese C57BL/6J mouse assessed as serum creatinine level at 40 mg/kg, ip administered twice daily for 2.5 days followed by once daily dosing up to 16 days measured at 2 hrs post last dose (reference value: 100.67 +/- 17.2 umol/L); format: organism-based; details: in vivo
Mus musculus [14] = experiment: Antihyperlipidemic activity in high fat diet-induced obese C57BL/6J mouse assessed as serum LDL-C levels at 20 mg/kg, ip administered twice daily for 2.5 days measured at 2 hrs post last dose (reference value: 2.54 +/- 0.87 mmol/L); format: functional
Mus musculus [15] = experiment: Antihyperlipidemic activity in high fat diet-induced obese C57BL/6J mouse assessed as reduction in triglyceride level in epididymis adipose tissue at 20 to 40 mg/kg, ip administered twice daily for 2.5 days measured at 2 hrs post last dose; format: functional, organism-based
Mus musculus [16] = experiment: Antihyperlipidemic activity in high fat diet-induced obese C57BL/6J mouse assessed as serum triglyceride levels at 20 mg/kg, ip administered twice daily for 2.5 days measured at 2 hrs post last dose (reference value: 1.31 +/- 0.48 mmol/L); format: functional
Mus musculus [17] = experiment: Increase in carbon dioxide production in HFD-induced obese C57BL/6J mouse at 40 mg/kg, ip administered twice daily for 2.5 days measured up to 12.6 hrs under dark condition; format: functional, organism-based
Mus musculus [18] = experiment: Down regulation of FAS mRNA expression in HFD-induced obese C57BL/6J mouse adipose tissue at 20 to 40 mg/kg, ip administered twice daily for 2.5 days measured at 2 hrs post last dose by RT-PCR analysis; format: functional, organism-based
Mus musculus [19] = experiment: Antihyperlipidemic activity in high fat diet-induced obese C57BL/6J mouse assessed as reduction in cholesterol level in epididymis adipose tissue at 20 to 40 mg/kg, ip administered twice daily for 2.5 days measured at 2 hrs post last dose; format: functional, organism-based
Mus musculus [20] = experiment: Down regulation of ABCG5 mRNA expression in HFD-induced obese C57BL/6J mouse liver at 20 to 40 mg/kg, ip administered twice daily for 2.5 days measured at 2 hrs post last dose by RT-PCR analysis; format: functional, organism-based
Mus musculus [21] = experiment: Antihyperlipidemic activity in high fat diet-induced obese C57BL/6J mouse assessed as reduction in liver cholesterol levels at 20 to 40 mg/kg, ip administered twice daily for 2.5 days measured at 2 hrs post last dose; format: functional, organism-based
Mus musculus [22] = experiment: Increase in oxygen consumption in HFD-induced obese C57BL/6J mouse at 40 mg/kg, ip administered twice daily for 2.5 days incubated for 12.6 hrs under dark condition followed by redosing on day 3 for 2 times; format: functional, organism-based
Mus musculus [23] = experiment: Antihyperlipidemic activity in high fat diet-induced obese C57BL/6J mouse assessed as serum HDL-C levels at 40 mg/kg, ip administered twice daily for 2.5 days measured at 2 hrs post last dose (reference value: 1.82 +/- 0.58 mmol/L); format: functional
Mus musculus [24] = experiment: Down regulation of LXRalpha mRNA expression in HFD-induced obese C57BL/6J mouse liver at 20 to 40 mg/kg, ip administered twice daily for 2.5 days measured at 2 hrs post last dose by RT-PCR analysis; format: functional, organism-based
Mus musculus [25] = experiment: Antihyperlipidemic activity in high fat diet-induced obese C57BL/6J mouse assessed as serum free fatty acid levels at 40 mg/kg, ip administered twice daily for 2.5 days measured at 2 hrs post last dose (reference value: 1.41 +/- 0.3 mmol/L); format: functional
Mus musculus [26] = experiment: Improvement in insulin resistance in high fat diet-induced obese C57BL/6J mouse assessed as reduction in fasting serum glucose level at 40 mg/kg, ip pretreated twice daily for 2.5 days followed by insulin challenge at 2 hrs post last dose measured up to 2 hrs by ITT; format: functional, organism-based
Mus musculus [27] = experiment: Effect on respiratory exchange ratios in HFD-induced obese C57BL/6J mouse at 40 mg/kg, ip administered twice daily for 2.5 days measured up to 12.6 hrs under dark condition; format: functional, organism-based
Mus musculus [28] = experiment: Down regulation of SREBP2 mRNA expression in HFD-induced obese C57BL/6J mouse liver at 20 to 40 mg/kg, ip administered twice daily for 2.5 days measured at 2 hrs post last dose by RT-PCR analysis; format: functional, organism-based

COC(=O)C1=CCC[C@H]2[C@](C)(C[C@@H](O[C@@H]3O[C@H](CO)[C@@H](O)[C@H](O)[C@H]3O)c3ccoc3)[C@H]3C[C@H](OC3=O)[C@@]12C
Activity (Mus musculus [1]): Active
Activity (Mus musculus [2]): inactive
Activity (Mus musculus [3]): Active
Activity (Mus musculus [4]): Active
Activity (Mus musculus [5]): Active
Activity (Mus musculus [6]): 2.24 mmol/L
Activity (Mus musculus [7]): 8.7%
Activity (Mus musculus [8]): Active
Activity (Mus musculus [9]): Active
Activity (Mus musculus [10]): Active
Activity (Mus musculus [11]): Active
Activity (Mus musculus [12]): Active
Activity (Mus musculus [13]): 86.37 µmol/L
Activity (Mus musculus [14]): 2.21 mmol/L
Activity (Mus musculus [15]): Active
Activity (Mus musculus [16]): 1.09 mmol/L
Activity (Mus musculus [17]): Active
Activity (Mus musculus [18]): Active
Activity (Mus musculus [19]): Active
Activity (Mus musculus [20]): Active
Activity (Mus musculus [21]): Active
Activity (Mus musculus [22]): Active
Activity (Mus musculus [23]): 1.31 mmol/L
Activity (Mus musculus [24]): Active
Activity (Mus musculus [25]): 0.82 mmol/L
Activity (Mus musculus [26]): Active
Activity (Mus musculus [27]): inactive
Activity (Mus musculus [28]): Active

Source: ChEMBL document CHEMBL4190285, “Borapetoside E, a Clerodane Diterpenoid Extracted from Tinospora crispa, Improves Hyperglycemia and Hyperlipidemia in High-Fat-Diet-Induced Type 2 Diabetes Mice” (J Nat Prod, 2017)
